Results from PubChem BioAssay (NCI).
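GI50 is the concentration that inhibits growth by half. The concentration for full growth arrest is given as TGI.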

Columns and labels:
Test in all cases: NCI-60 cell line screen, 384-well format
TK-10 renal = tested on: TK-10 renal
SK-MEL-28 melanoma = tested on: SK-MEL-28 melanoma
BT-549 breast = tested on: BT-549 breast
786-0 renal = tested on: 786-0 renal
RPMI-8226 leukemia = tested on: RPMI-8226 leukemia
HS 578T breast = tested on: HS 578T breast
SF-539 CNS = tested on: SF-539 CNS
OVCAR-5 ovarian = tested on: OVCAR-5 ovarian
MDA-MB-435 melanoma = tested on: MDA-MB-435 melanoma
RXF 393 renal = tested on: RXF 393 renal
SNB-75 CNS = tested on: SNB-75 CNS
NCI-H522 lung = tested on: NCI-H522 lung
A549 NSCLC = tested on: A549 NSCLC
MOLT-4 leukemia = tested on: MOLT-4 leukemia
SR leukemia = tested on: SR leukemia
HCT-15 colon = tested on: HCT-15 colon
SNB-19 CNS = tested on: SNB-19 CNS
CAKI-1 renal = tested on: CAKI-1 renal
HT29 colon = tested on: HT29 colon
SF-295 CNS = tested on: SF-295 CNS
T-47D breast = tested on: T-47D breast
PC-3 prostate = tested on: PC-3 prostate
SW-620 colon = tested on: SW-620 colon
HL-60(TB) leukemia = tested on: HL-60(TB) leukemia
IGROV1 ovarian = tested on: IGROV1 ovarian
HCT-116 colon = tested on: HCT-116 colon
OVCAR-4 ovarian = tested on: OVCAR-4 ovarian
NCI-H322M lung = tested on: NCI-H322M lung
SN12C renal = tested on: SN12C renal
UO-31 renal = tested on: UO-31 renal
NCI-H226 lung = tested on: NCI-H226 lung
MDA-MB-468 breast = tested on: MDA-MB-468 breast
MCF7 breast = tested on: MCF7 breast
OVCAR-8 ovarian = tested on: OVCAR-8 ovarian
A498 renal = tested on: A498 renal
HOP-62 NSCLC = tested on: HOP-62 NSCLC
DU-145 prostate = tested on: DU-145 prostate
MALME-3M melanoma = tested on: MALME-3M melanoma
HOP-92 NSCLC = tested on: HOP-92 NSCLC
SK-MEL-5 melanoma = tested on: SK-MEL-5 melanoma
CCRF-CEM leukemia = tested on: CCRF-CEM leukemia
OVCAR-3 ovarian = tested on: OVCAR-3 ovarian
MDA-MB-231 breast = tested on: MDA-MB-231 breast
EKVX NSCLC = tested on: EKVX NSCLC
SK-OV-3 ovarian = tested on: SK-OV-3 ovarian
UACC-257 melanoma = tested on: UACC-257 melanoma
UACC-62 melanoma = tested on: UACC-62 melanoma
SK-MEL-2 melanoma = tested on: SK-MEL-2 melanoma
LOX IMVI melanoma = tested on: LOX IMVI melanoma
U251 glioblastoma = tested on: U251 glioblastoma
KM12 colon = tested on: KM12 colon
HCC-2998 colon = tested on: HCC-2998 colon
NCI-H460 NSCLC = tested on: NCI-H460 NSCLC
COLO 205 colon = tested on: COLO 205 colon
SF-268 CNS = tested on: SF-268 CNS
K-562 leukemia = tested on: K-562 leukemia
NCI-H23 lung = tested on: NCI-H23 lung
M14 melanoma = tested on: M14 melanoma
NCI/ADR-RES ovarian = tested on: NCI/ADR-RES ovarian
ACHN renal = tested on: ACHN renal

Q: What does the source list for `O=C(c1ccc(Oc2ccccc2)cc1Cl)c1c[nH]c2ncnc(N[C@@H]3CC[C@@H](CO)OC3)c12`?
A: GI50 (TK-10 renal): 185 nM; TGI (TK-10 renal): 543 nM; GI50 (SK-MEL-28 melanoma): 13.3 nM; TGI (SK-MEL-28 melanoma): 55.8 nM; GI50 (BT-549 breast): 313 nM; TGI (BT-549 breast): 1460 nM; GI50 ([…]-0 renal): 1110 nM; TGI (786-0 renal): 4610 nM; GI50 (RPMI-8226 leukemia): 696 nM; TGI (RPMI-8226 leukemia): 2190 nM; GI50 (HS 578T breast): 700 nM; TGI (HS 578T breast): 2120 nM; GI50 (SF-539 CNS): 338 nM; TGI (SF-539 CNS): 1600 nM; GI50 (OVCAR-5 ovarian): 153 nM; TGI (OVCAR-5 ovarian): 938 nM; GI50 (MDA-MB-435 melanoma): 17 nM; TGI (MDA-MB-435 melanoma): 170 nM; GI50 (RXF 393 renal): 210 nM; TGI (RXF 393 renal): 920 nM; GI50 (SNB-75 CNS): 801 nM; TGI (SNB-75 CNS): 2280 nM; GI50 (NCI-H522 lung): 49.4 nM; TGI (NCI-H522 lung): 366 nM; GI50 (A549 NSCLC): 244 nM; TGI (A549 NSCLC): 1540 nM; GI50 (MOLT-4 leukemia): 296 nM; TGI (MOLT-4 leukemia): 1820 nM; GI50 (SR leukemia): 186 nM; TGI (SR leukemia): 343 nM; GI50 (HCT-15 colon): 510 nM; TGI (HCT-15 colon): 3340 nM; GI50 (SNB-19 CNS): 372 nM; TGI (SNB-19 CNS): 3950 nM; GI50 (CAKI-1 renal): 261 nM; TGI (CAKI-1 renal): 1440 nM; GI50 (HT29 colon): 33.4 nM; TGI (HT29 colon): 1300 nM; GI50 (SF-295 CNS): 1000 nM; TGI (SF-295 CNS): 3330 nM; GI50 (T-47D breast): 520 nM; TGI (T-47D breast): 3210 nM; GI50 (PC-3 prostate): 2320 nM; TGI (PC-3 prostate): 11600 nM; GI50 (SW-620 colon): 151 nM; TGI (SW-620 colon): 1270 nM; GI50 (HL-60(TB) leukemia): 36.8 nM; TGI (HL-60(TB) leukemia): 196 nM; GI50 (IGROV1 ovarian): 30.6 nM; TGI (IGROV1 ovarian): 987 nM; GI50 (HCT-116 colon): 248 nM; TGI (HCT-116 colon): 1110 nM; GI50 (OVCAR-4 ovarian): 1130 nM; TGI (OVCAR-4 ovarian): 7200 nM; GI50 (NCI-H322M lung): 249 nM; TGI (NCI-H322M lung): 1780 nM; GI50 (SN12C renal): 193 nM; TGI (SN12C renal): 1380 nM; GI50 (UO-31 renal): 305 nM; TGI (UO-31 renal): 1450 nM; GI50 (NCI-H226 lung): 135 nM; TGI (NCI-H226 lung): 937 nM; GI50 (MDA-MB-468 breast): 303 nM; TGI (MDA-MB-468 breast): 1870 nM; GI50 (MCF7 breast): 255 nM; TGI (MCF7 breast): 1910 nM; GI50 (OVCAR-8 ovarian): 390 nM; TGI (OVCAR-8 ovarian): 2080 nM; GI50 (A498 renal): 519 nM; TGI (A498 renal): 2770 nM; GI50 (HOP-62 NSCLC): 638 nM; TGI (HOP-62 NSCLC): 2660 nM; GI50 (DU-145 prostate): 354 nM; TGI (DU-145 prostate): 1480 nM; TGI (MALME-3M melanoma): 24.7 nM; GI50 (HOP-92 NSCLC): 273 nM; TGI (HOP-92 NSCLC): 1190 nM; GI50 (SK-MEL-5 melanoma): 33.7 nM; TGI (SK-MEL-5 melanoma): 1470 nM; GI50 (CCRF-CEM leukemia): 1590 nM; TGI (CCRF-CEM leukemia): 3400 nM; GI50 (OVCAR-3 ovarian): 130 nM; TGI (OVCAR-3 ovarian): 3180 nM; GI50 (MDA-MB-231 breast): 46.3 nM; TGI (MDA-MB-231 breast): 207 nM; GI50 (EKVX NSCLC): 113 nM; TGI (EKVX NSCLC): 1070 nM; GI50 (SK-OV-3 ovarian): 201 nM; TGI (SK-OV-3 ovarian): 965 nM; GI50 (UACC-257 melanoma): 21.7 nM; TGI (UACC-257 melanoma): 83.9 nM; GI50 (UACC-62 melanoma): 10.7 nM; TGI (UACC-62 melanoma): 54.7 nM; GI50 (SK-MEL-2 melanoma): 127 nM; TGI (SK-MEL-2 melanoma): 289 nM; GI50 (LOX IMVI melanoma): 33.1 nM; TGI (LOX IMVI melanoma): 161 nM; GI50 (U251 glioblastoma): 462 nM; TGI (U251 glioblastoma): 2510 nM; GI50 (KM12 colon): 19.4 nM; TGI (KM12 colon): 171 nM; GI50 (HCC-2998 colon): 29.9 nM; TGI (HCC-2998 colon): 204 nM; GI50 (NCI-H460 NSCLC): 771 nM; TGI (NCI-H460 NSCLC): 3650 nM; GI50 (COLO 205 colon): 17.7 nM; TGI (COLO 205 colon): 113 nM; GI50 (SF-268 CNS): 482 nM; TGI (SF-268 CNS): 4890 nM; GI50 (K-562 leukemia): 153 nM; TGI (K-562 leukemia): 399 nM; GI50 (NCI-H23 lung): 67 nM; TGI (NCI-H23 lung): 385 nM; TGI (M14 melanoma): 48.9 nM; GI50 (NCI/ADR-RES ovarian): 1130 nM; TGI (NCI/ADR-RES ovarian): 2480 nM; GI50 (ACHN renal): 121 nM; TGI (ACHN renal): 983 nM
